Measured values reported in ChEMBL document CHEMBL3639325, “Fused tricyclic dual inhibitors of CDK 4/6 and FLT3” (2014).

Legend:
[1] = molecular target: T1, Receptor-type tyrosine-protein kinase FLT3 (Homo sapiens, UniProt P36888); experiment: Kinase Assay: The FLT3 inhibitory activity of the CDK4/6-FLT3 inhibitors was determined with a HTRF kinase assay. The FLT3 enzyme (GST-FLT3 fusion) was purchased from Carna Biosciences. An ULight-labeled synthetic peptide derived from human Janus kinase 1 (aa1015-1027, ULight-JAK1, PerkinElmer) was utilized as the phosphoacceptor substrate. The assay was conducted in a 384-well white OptiPlate (PerkinElmer). The 20 μL reaction mixture contained 50 nM ULight-JAK1, 116 μM ATP, 0.0385 ng/μL FLT3 and dilutions of test compounds in the kinase buffer (50 mM Hepes, pH 7.6, 1 mM EGTA, 10 mM MgCl2, 2 mM DTT, and 0.005% Tween 20). The reaction was allowed to proceed for 1 hour at room temperature and was stopped by adding 20 μL of 10 mM EDTA, 2 nM LANCE Eu-W1024 anti-phospho-tyrosine antibody in LANCE detection buffer (PerkinElmer). The plates were incubated at room temperature for 2 hours after addition of detection reagents and then read on an Envision multimode reader (PerkinElmer).
T1 sequence (P36888 whole entry): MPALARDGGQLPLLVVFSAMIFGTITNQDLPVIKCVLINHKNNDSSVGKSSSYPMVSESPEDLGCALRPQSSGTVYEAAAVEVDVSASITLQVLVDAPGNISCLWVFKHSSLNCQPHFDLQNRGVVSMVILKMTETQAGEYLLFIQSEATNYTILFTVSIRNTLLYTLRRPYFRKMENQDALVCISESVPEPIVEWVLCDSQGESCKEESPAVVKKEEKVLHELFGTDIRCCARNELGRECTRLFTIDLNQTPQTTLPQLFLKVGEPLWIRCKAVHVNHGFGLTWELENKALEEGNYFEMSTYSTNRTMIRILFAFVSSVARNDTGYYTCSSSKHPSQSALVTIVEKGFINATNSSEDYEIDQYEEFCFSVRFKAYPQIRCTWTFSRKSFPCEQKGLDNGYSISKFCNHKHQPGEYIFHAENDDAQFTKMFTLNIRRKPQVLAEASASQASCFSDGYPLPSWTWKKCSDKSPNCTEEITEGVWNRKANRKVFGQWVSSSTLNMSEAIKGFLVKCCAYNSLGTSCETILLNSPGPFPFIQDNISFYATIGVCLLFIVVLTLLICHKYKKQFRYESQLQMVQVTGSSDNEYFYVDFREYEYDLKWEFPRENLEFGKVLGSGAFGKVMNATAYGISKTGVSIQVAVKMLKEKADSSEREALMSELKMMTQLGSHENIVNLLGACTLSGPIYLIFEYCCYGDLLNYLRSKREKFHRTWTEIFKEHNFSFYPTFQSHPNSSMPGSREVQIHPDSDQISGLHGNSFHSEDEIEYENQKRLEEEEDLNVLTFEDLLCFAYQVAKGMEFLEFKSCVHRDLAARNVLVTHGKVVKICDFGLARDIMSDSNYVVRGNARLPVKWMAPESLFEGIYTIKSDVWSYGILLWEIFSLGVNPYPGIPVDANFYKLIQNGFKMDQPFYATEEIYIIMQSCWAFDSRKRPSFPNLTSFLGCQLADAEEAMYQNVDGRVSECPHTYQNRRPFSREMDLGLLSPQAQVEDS

[2] = molecular target: Cyclin-dependent kinase 4 (Homo sapiens, UniProt P11802); experiment: Kinase Assay: The CDK4 and CDK1 inhibitory activity of the CDK4/6-FLT3 inhibitors was determined with a filtration kinase assay. The compounds, kinase and substrate diluted in the kinase buffer (20 mM Tris, pH7.4, 50 mM NaCl, 1 mM DTT, 0.1% BSA) were sequentially added to a 96-well Multiscreen HTS filtration plate (Millipore). The final 100 μL reaction mixture in each well contained 0.3 μg of CDK4/Cyclin D1 or CDK1/Cyclin B (Cell Signaling Technology), 1 μg of Rb fragment (aa773-928, Millipore) for the CDK4 assay or 5 μg of histone H1 for the CDK1 assay and 1 μCi of [33P]-ATP. The mixture was incubated at room temperature for 1 hour. The proteins in the reaction were then precipitated and washed with cold TCA solution using an aspiration/filtration vacuum system. The plates were dried at room temperature, and the retained radioactivity was measured by scintillation counting.
Cyclin-dependent kinase 4, sequence (P11802 whole entry, the tested form may be a part): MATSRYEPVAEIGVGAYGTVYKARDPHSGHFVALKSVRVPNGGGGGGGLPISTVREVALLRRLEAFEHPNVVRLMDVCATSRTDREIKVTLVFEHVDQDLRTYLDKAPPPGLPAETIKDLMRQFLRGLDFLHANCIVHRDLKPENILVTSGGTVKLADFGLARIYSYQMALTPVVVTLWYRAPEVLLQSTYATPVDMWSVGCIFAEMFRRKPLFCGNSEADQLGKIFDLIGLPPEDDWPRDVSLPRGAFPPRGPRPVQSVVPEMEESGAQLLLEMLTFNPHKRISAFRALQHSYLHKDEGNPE

SMILES: C[C@H]1CC[C@H](n2c3cnccc3c3cnc(Nc4ccc5c(n4)C(O)CN(CCO)C5)nc32)CC1 (some centres not stated)
- IC50 [1]: 0.0029 µM
- IC50 [2]: 0.0192 µM
